Consider one substance from patent publication US11478440B2, “Combination of Elafibranor or derivatives thereof with an anti-NASH, anti-fibrotic or anti-cholestatic agent” (GENFIT, priority 2017, dated 2022).

One series has as its system 3D Huh7 spheroids. Kind of series: Lipid accumulation (AdipoRed) in 3D Huh7 spheroid culture under metabolic NASH stimulus. The settings on record: Elafibranor 3 μM alone, Day 7. In kind it is cell-based. On the procedure:
Cryopreserved Huh7 were purchased from ECACC. Cells were grown in ULA plates (Costar), William's medium (Sigma) containing 10% FBS (Gibco) at 37° C. in a humidified 5% CO2 cell culture incubator. Cells aggregated and formed spheroids within 5 days.
For these experiments, a checkerboard matrix was generated. ELA and component (ii) stocks were serially diluted in DMSO in 2-points series in a row (ELA) and a 3-points series in a column (component (ii)) of a 96-well plate. Subsequently, the 2×3 combination matrix was generated by 1:1 mixing of all single agent concentrations.
3D Huh7 spheroids were cultured under standard conditions, as described above. They were then deprived for 24 hours in serum-free medium. For the treatments with ELA, component (ii) and the respective ELA/component (ii) combinations, the serum-deprived spheroids were treated with both a metabolic NASH stimulus and the compounds (Day 0) followed by the renewal of the metabolic NASH stimulus and the compounds at Day 4 for an additional 3 days period. The spheroids were stained for lipid accumulation at Day 7.
Intracellular lipid accumulation was quantified using the ADIPORED Assay Reagent (Lonza). Spheroids were subjected to fluorescence assay quantification at λexc: 485 nm and λem: 572 nm, using fluorescence plate reader (TECAN).

For series [1], the system named is fibrosing NASH-model of rats fed a CDAA+1% cholesterol diet. The series can be described thus: Chronic CDAA+1% cholesterol rat model: hepatic collagen content (hydroxyproline). Format: in vivo, Wistar rats. The settings on record: GFT505 3 mg/kg/d, OCA 10 mg/kg/d, alone or combined; 12 weeks in diet. As for the experimental part: The preventive effects of Elafibranor alone, OCA alone and the combination of both were assessed in a fibrosing NASH-model of rats fed a CDAA+1% cholesterol diet. 150-175 g male Wistar rats were fed a control (CSAA) diet, CDAA+1% cholesterol diet, or CDAA+1% cholesterol diet supplemented with Elafibranor 1, 3 and 10 mg/kg/day, OCA 10 and 30 mg/kg/day or combined drugs (Elafibranor 1, 3 and 10 mg/kg/day combined to OCA 10 mg/kg/day) for 12 weeks.
The body weight and the food intake were monitored twice per week. On the last day of treatment, rats were sacrificed after a 6 h fasting period. The liver was rapidly excised for biochemical and histological studies.
The hepatic collagen content was determined using the appropriate QuickZyme kit (Total collagen assay, cat #QZB-totcol2). The assay is based on the detection of hydroxyproline, which is a non-proteinogenic amino acid mainly found in the triple helix of collagen. Thus, hydroxyproline in tissue hydrolysates can be used as a direct measure of the amount of collagen present in the tissue (without discrimination between procollagen, mature collagen and collagen degradation products).
Complete hydrolysis of tissue samples in 6M HCl at 95° C. is required before dosing the hydroxyproline. The assay results in the generation of a chromogen with a maximum absorbance at 570 nm. Results are expressed as mg of collagen/g of liver.

Series [2] relates to mice with NASH (CDFF-fed mice). The series can be described thus: Mouse fibrosing-NASH model (CDFF diet, 8 weeks). In kind it is in vivo, C57Bl/6J mice. The settings on record: elafibranor 3 mg/kg/day. On the procedure: The preventive effects of the combinations of elafibranor with selonsertib, GKT-831 or GS-0976 were assessed in mice fed a choline-deficient, […] diet (CDAA) supplemented with 2% cholesterol, 30% milk fat diet and high fructose corn syrup 55 (55% fructose/45% glucose for a final concentration of 42 g/L) in drinking water (Mells et al J Nutr Biochem 2015) (CDFF diet). 5-6 weeks old male C57Bl/6J mice were fed a control (CSAA) diet (n=4), CDFF (n=12), or CDFF supplemented with elafibranor (1 or 3 mg/kg/day), selonsertib (30 mg/kg/day), GKT-831 ([…]) alone or in combination (n=8 per group) for 8 weeks.
The body weight, the food and water intake were monitored twice per week. On the last day of treatment, plasma samples were obtained from retro-orbital blood sampling and mice were sacrificed after a 6 h-fasting period. The liver was rapidly excised for biochemical and histological analyses. All animal procedures were performed according to standard protocols and in accordance with the standard recommendations for the proper care and use of laboratory animals.
The liver slices were fixed in a formalin 4% solution. Then, the liver pieces were washed 30 minutes in PBS, and dehydrated in ethanol solutions (successive baths at 70, 80, 95 and 100% ethanol). The liver pieces were incubated in three different baths of Xylene (Honeywell cat #534056), followed by two baths in liquid paraffin (59° C.). Liver pieces were then put into racks that were gently filled with HISTOWAX to completely cover the tissue.
Liver sections were deparaffinized, rehydrated and incubated for 3 minutes in Mayer's Hematoxylin (Microm, cat #F/C0303). Then, the liver sections were rinsed in water and incubated 1 minute in a Eosin Y 0.5% alcoholic (VWR, cat #1.02439.0500) and Erythrosin 0.5% solution (VWR, cat #1.15936.0010), and rinsed in with ethanol. Sections were then incubated for 2 minutes in Safranin, and were eventually dehydrated and mounted using the CV Mount medium (Leica, cat #046430011).
Liver sections were deparaffinized, rehydrated and incubated for 15 minutes in a solution of Fast Green FCF 0.1% (Sigma-Aldrich, cat #F7258) before rinsing in a bath of 0.5% acetic acid (Panreac, cat #131008.1611). Then, the liver sections were rinsed in water and incubated 30 minutes in a solution of 0.1% sirius red (Direct Red 80, Fluka cat #43665) in saturated aqueous picric acid (Sigma-Aldrich cat #P6744). Sections were then dehydrated, and mounted using the CV Mount medium (Leica, cat #14046430011).
A technician blinded to the source of each liver specimen performed histological examinations. Virtual slides were generated using the Pannoramic 250 scanner from 3D Histech. For each animal, a score summarizing the main histological lesions of NASH was attributed according to the NASH Clinical Research Network (Kleiner 2005, Brunt 1999). Briefly, steatosis, lobular inflammation and hepatocyte ballooning were scored. The NAFLD Activity Score (NAS) was established for each individual as the unweighted sum of the steatosis (0-3), lobular inflammation (0-3) and the ballooning (0-2) injury grading.
Using Quant Center software (3D Histech, including Pattern Quant and Histo Quant modules), collagen-stained areas were quantified. Briefly, Pattern Quant was used to detect the tissue and measure its surface. Then, Histo Quant was used to detect the stained collagen content and measure its surface, based on a color threshold method. The fibrosis area was then expressed as the percentage of the collagen surface to the whole tissue per animal.
The hepatic collagen content was determined using the appropriate QuickZyme kit (Total collagen assay, cat #QZB-totcol2). The assay is based on the detection of hydroxyproline, which is a non-proteinogenic amino acid mainly found in the triple helix of collagen. […]

For series [3] the following is noted: up to 2-year carcinogenicity studies; cited from earlier work.

In the case of “1-[4-methylthiophenyl]-3-[3,5-dimethyl-4-carboxydimethylmethyloxyphenyl]prop-2-en-1-one [Elafibranor]”, the “reduction of fat content” value in the series on 3D Huh7 spheroids is 12%. Further, the “Hepatic collagen content, percentage over the untreated CDAA + 1% cholesterol rats” value in series [1] is on record as 45% ± 12%. Further, the “NASH histology (steatosis, hepatic lobular inflammation, NAFLD activity score)” value in series [2] is reported as “improves NASH histology”. Besides, the “hepatic expression of genes related to inflammation, tissue remodeling and fibrogenesis” value in series [2] (alone or with selonsertib 30 mg/kg/day) is given as “decreases”. Moreover, in series [2] (selonsertib 30 mg/kg/day, alone or combined), the “hepatic fibrosis (histology, hepatic collagen content, PIIINP and TIMP-1)” value was “marked reduction of hepatic fibrosis”. Besides, the safety concern result in series [3] is “absence of safety concern”.
